According to patent publication EP2966448B1, “METHOD FOR THE PREDICTION OR PROGNOSIS OF THE RESPONSE OF A HUMAN SUBJECT SUFFERING FROM CANCER TO TREATMENT WITH AN ANTAGONIST OF THE NK1 RECEPTOR” (priority 2013, dated 2014):
Like-named read-outs stand apart in the source and are kept apart here.

Experiments:
Leukemia B = assay: Inhibition of primary tumor cell cultures (48 hours) vs NK1 receptor immunostaining (Example 1); assay type: cell-based; conditions: Homo sapiens, 1 micromolar, read-out: Percentage of inhibition of cell cultures
Procedure: (§1) Cell cultures. To obtain tumor cells from human primary tumors we used the method described in De Bari et al. (De Bari et al. 2001). Briefly, small pieces of the tumors were digested into a hyaluronidase solution (Sigma-Aldrich, USA) at a concentration of 1 mg/ml during 15 minutes at 37°C, and then they were treated with 6 mg/ml of collagenase type IV (Invitrogen) during 2 hours at 37°C. Consecutively, cells were washed, and resuspended in the DMEM culture medium with high concentration of glucose (Dulbecco's Modified Eagle's Medium, Invitrogen) supplemented with 1% of antibiotics-antimycotics (Invitrogen) and with 1% of sodium pyruvate (Invitrogen), and the cells were seeded in culture slides at a concentration of 10.000 cells per square centimeter. When cells reached confluence, the adherent cells were separated using sterile trypsin at 0,5% (Invitrogen) and they were used among passages 3 and 9. For the assays shown next, tumor cells were seeded on slides at a concentration of 25.000 cells per well. A total of 6 wells containing the tumor cells were used as survival control. […] All the cultures were kept during 48 hours and later on recollected for their analysis.
(§2) Immunohistochemistry techniques. The presence of NK1 receptors was also analyzed using immunohistochemistry techniques. Briefly, a sample of each of the cultures of the cell lines used in the present invention, was centrifuged (5 minutes at 1.500 rpm) and the pellet obtained was dehydrated using increasing concentrations of ethanol and, finally, xylol. Then, said dehydrated samples were embedded in paraffin, creating a block of cells. Such paraffin blocks were cut with a microtome at 5 microns thickness, and were placed on microscope slides adequate to perform immunohistochemistry techniques. Consecutively, they were de-paraffinized by immersing them in xylol, to be finally hydrated using a solution containing decreasing concentrations of ethanol, and finally submerged them into water. […] After this, the samples were left to cool down at room temperature for 10 minutes. The endogenous peroxidase activity was blocked with 3% peroxide of hydrogen for 30 minutes at room temperature. After washing the samples with 0.05 M of Tris buffer, they were incubated with 10% non-immune pork serum at for 30 minutes at room temperature. To analyze the expression of NK1 receptors, the cellular samples were incubated in the presence of anti-NK1 antibodies (S8305, Sigma-Aldrich) diluted 1:1000, overnight at 4°C. Afterwards, the samples were washed in Tris buffer 0.05 M at room temperature. The next step was the addition of Envision System-HRP (Dako) reagents for 30 minutes at room temperature. Then, the samples were washed again in Tris buffer 0.05 M and the immunoreactivity was visualized through light microscopy with a chromogenic solution containing 3,3'-Diaminobenzidine (DAB+; Dako, USA). To differentiate the cell nuclei, they were slightly stained with hematoxylin. As negative control, it was used samples not incubated with the primary antibody anti-NK1, which was replaced by non-immune serum. All the samples were evaluated.
(§3) To value the immunostaining in each of the cases six cuts were performed to be analyzed by the immunohistochemistry technique. In each of the six cuts, it was counted cells in 20 fields (magnification 400x) using an Olympus microscope (model CX31). In each field it was counted the total number of cells and the number of cells presenting immunostaining, calculating afterwards the percentage of cells which presented immunostaining.

Burkitt Lymphoma [1] = assay: Inhibition of primary tumor cell cultures vs Kras mutation (Example 2); assay type: cell-based, human; conditions: Burkitt Lymphoma, 100 micromolar
Procedure: as §1
(§4) In each case the presence or not of mutations in K-ras gene was determined.
(§5) To determine the existence of mutations in the K-ras gene DNA from cancer tumor cells was extracted from samples obtained from the different cancer tumor cells, using DNA extraction kits from Takara (Madison, WI, US) or Ambion (Huntingdon, Cambridgeshire, United Kingdom), following the manufacturer's instructions, and as it has been previously published (Di Fiore F, et al. 2007). Consecutively it was analyzed by sequencing the exon 2 of the KRAS gene, , by means of PCR amplification from previously extracted cancer tumor DNA, using the following sense primer (SEQ ID NO. 15): 5'-[sequence]-3' and anti-sense primer (SEQ ID NO. 16): 5'-[sequence]-3'. After the purification using the Qiagen extraction kit, the PCR products were sequenced using the Big Dye Terminator Kit V3.1 (Applied Biosystems, Foster City, CA, U.S.) and an ABI Prism 377 or 3100 DNA sequencer (Applied Biosystems). The presence of a heterozygous mutation in the KRAS gene in cancer tumor cells of the cultures was defined as the appearance of a mutant peak of a height of at least a third of the wild type. All the sequence analysis were executed at least twice in two independent PCR.
(§6) The antibody against NK1 receptor (Table 16) was used at 1/50 concentration. The percentages of inhibition are expressed in percentage of variation in relation to control ± standard deviation.

Hodgkin lymphoma = assay: Inhibition of primary tumor cell cultures (48 hours) vs NK1 receptor immunostaining (Example 1); assay type: cell-based; conditions: Homo sapiens, 1 micromolar, read-out: Percentage of inhibition of cell cultures
Procedure: as §1, §2, §3

[2] = test system: Lung carcinoma (small cell lung carcinoma); assay: Inhibition of primary tumor cell cultures vs Kras mutation (Example 2); assay type: cell-based, human; conditions: Lung carcinoma (small cell lung carcinoma), 100 micromolar
Procedure: (§7) To obtain tumor cells from human primary tumors we used the method described in De Bari et al. (De Bari et al. 2001). Briefly, small pieces of the tumors were digested into a hyaluronidase solution (Sigma-Aldrich, USA) at a concentration of 1 mg/ml during 15 minutes at 37°C, and then they were treated with 6 mg/ml of collagenase type IV (Invitrogen) during 2 hours at 37°C. Consecutively, cells were washed, and resuspended in the DMEM culture medium with high concentration of glucose (Dulbecco's Modified Eagle's Medium, Invitrogen) supplemented with 1% of antibiotics-antimycotics (Invitrogen) and with 1% of sodium pyruvate (Invitrogen), and the cells were seeded in culture slides at a concentration of 10.000 cells per square centimeter. When cells reached confluence, the adherent cells were separated using sterile trypsin at 0,5% (Invitrogen) and they were used among passages 3 and 9. For the assays shown next, tumor cells were seeded on slides at a concentration of 25.000 cells per well. A total of 6 wells containing the tumor cells were used as survival control. […] All the cultures were kept during 48 hours and later on recollected for their analysis.
as §4, §5, §6

[3] = test system: Carcinoma of the uterine cervix; assay: Inhibition of primary tumor cell cultures (48 hours) vs NK1 receptor immunostaining (Example 1); assay type: cell-based; conditions: Homo sapiens, 1 micromolar, read-out: Percentage of inhibition of cell cultures
Procedure: as §1, §2, §3

Endometrium carcinoma = assay: Inhibition of primary tumor cell cultures vs Kras mutation (Example 2); assay type: cell-based, human; conditions: Endometrium carcinoma, 100 micromolar
Procedure: (§8) Cell cultures. […] Briefly, small pieces of the tumors were digested into a hyaluronidase solution (Sigma-Aldrich, USA) at a concentration of 1 mg/ml during 15 minutes at 37°C, and then they were treated with 6 mg/ml of collagenase type IV (Invitrogen) during 2 hours at 37°C. Consecutively, cells were washed, and resuspended in the DMEM culture medium with high concentration of glucose (Dulbecco's Modified Eagle's Medium, Invitrogen) supplemented with 1% of antibiotics-antimycotics (Invitrogen) and with 1% of sodium pyruvate (Invitrogen), and the cells were seeded in culture slides at a concentration of 10.000 cells per square centimeter. When cells reached confluence, the adherent cells were separated using sterile trypsin at 0,5% (Invitrogen) and they were used among passages 3 and 9. For the assays shown next, tumor cells were seeded on slides at a concentration of 25.000 cells per well. A total of 6 wells containing the tumor cells were used as survival control. […] All the cultures were kept during 48 hours and later on recollected for their analysis.
as §4, §5, §6

Colon carcinoma = assay: Inhibition of primary tumor cell cultures (48 hours) vs NK1 receptor immunostaining (Example 1); assay type: cell-based; conditions: Homo sapiens, 1 micromolar, read-out: Percentage of inhibition of cell cultures
Procedure: as §1, §2, §3

Glioma = assay: as above; assay type: cell-based; conditions: Homo sapiens, 1 micromolar, read-out: Percentage of inhibition of cell cultures
Procedure: as §1, §2, §3

Burkitt Lymphoma [4] = assay: as above; assay type: cell-based; conditions: Homo sapiens, 1 micromolar, read-out: Percentage of inhibition of cell cultures
Procedure: as §1, §2, §3

[5] = test system: Thyroid carcinoma (follicular carcinoma); assay: Inhibition of primary tumor cell cultures vs Kras mutation (Example 2); assay type: cell-based, human; conditions: Thyroid carcinoma (follicular carcinoma), 100 micromolar
Procedure: as §7, §4, §5, §6

[6] = test system: Lung carcinoma (non small cell type); assay: Inhibition of primary tumor cell cultures (48 hours) vs NK1 receptor immunostaining (Example 1); assay type: cell-based; conditions: Homo sapiens, 1 micromolar, read-out: Percentage of inhibition of cell cultures
Procedure: as §1, §2, §3

Fibrosarcoma = assay: as above; assay type: cell-based; conditions: Homo sapiens, 1 micromolar, read-out: Percentage of inhibition of cell cultures
Procedure: as §1, §2, §3

[7] = test system: Lung carcinoma (small cell type); assay: as above; assay type: cell-based; conditions: Homo sapiens, 1 micromolar, read-out: Percentage of inhibition of cell cultures
Procedure: as §1, §2, §3

[8] = test system: Breast carcinoma (ductal adenocarcinoma); assay: Inhibition of primary tumor cell cultures vs Kras mutation (Example 2); assay type: cell-based, human; conditions: Breast carcinoma (ductal adenocarcinoma), 100 micromolar
Procedure: as §8, §4, §5, §6

[9] = test system: Non Hodgkin Lymphoma B (diffuse B cell lymphoma); assay: as above; assay type: cell-based, human; conditions: Non Hodgkin Lymphoma B (diffuse B cell lymphoma), 100 micromolar
Procedure: as §1, §4, §5
The percentages of inhibition are expressed in percentage of variation in relation to control ± standard deviation.

[10] = test system: human primary tumor cells; assay: Inhibition of primary tumor cell cultures vs absence or presence of AKT protein (Example 4; tumor type per table line); assay type: cell-based; conditions: cancer cell cultures showing more presence of AKT, compared; non-peptidic antagonists 100 micromolar, antibody 1/50
Procedure: as §8
Afterwards, the cells were cultured in presence of several antagonists of the NK1 receptor.
In each case it was determined the presence or absence of the AKT protein effector downstream in the PI3 Kinases pathway.
To determine the presence of the AKT protein in the different cultures Western Blot technique was performed (following the description in example 1-Western Blot section), but using as primary antibody with reference: Akt (pan) (11E7) Rabbit mAb (4685, Cell Signalling).
The antibody against NK1 receptor (Table 26) was used at 1/50 concentration. The percentages of inhibition are expressed in percentage of variation in relation to control ± standard deviation.

[11] = NK1 receptor immunostaining Group 2 (20-80% of the cells)
[12] = NK1 receptor immunostaining Group 3 (more than 80% of the cells)
[13] = NK1 receptor immunostaining Intensity grade 1
[14] = NK1 receptor immunostaining Intensity grade 2
[15] = NK1 receptor immunostaining Intensity grade 3
[16] = Cases with Kras non-mutated (wild type)
[17] = NK1 receptor immunostaining Group 1 (less than 20% of the cells)

Cc1cc(F)ccc1[C@H]1CNCCN1C(=O)N(C)[C@H](C)c1cc(C(F)(F)F)cc(C(F)(F)F)c1 [Vestipitant]
inhibition at 1 µM (Leukemia B; [11]): 47 ± 5% | inhibition at 1 µM (Leukemia B; [12]): 92 ± 5% | inhibition at 1 µM (Leukemia B; [13]): 17 ± 2% | inhibition at 1 µM (Leukemia B; [14]): 47 ± 3% | inhibition at 1 µM (Leukemia B; [15]): 92 ± 4% | Percentage of inhibition of cell cultures (Burkitt Lymphoma [1]; Cases with Kras mutated): 24±3 percentage | Percentage of inhibition of cell cultures (Burkitt Lymphoma [1]; [16]): 95±3 percentage | inhibition at 1 µM (Hodgkin lymphoma; [17]): 14 ± 3% | inhibition at 1 µM (Hodgkin lymphoma; [11]): 46 ± 3% | inhibition at 1 µM (Hodgkin lymphoma; [12]): 92 ± 5% | inhibition at 1 µM (Hodgkin lymphoma; [13]): 16 ± 4% | inhibition at 1 µM (Hodgkin lymphoma; [14]): 48 ± 3% | inhibition at 1 µM (Hodgkin lymphoma; [15]): 92 ± 4% | Percentage of inhibition of cell cultures ([2]; Cases with Kras mutated): 23±4 percentage | Percentage of inhibition of cell cultures [2, 16]: 95±4 percentage | inhibition at 1 µM [3, 17]: 17 ± 4% | inhibition at 1 µM [3, 11]: 46 ± 3% | inhibition at 1 µM [3, 12]: 94 ± 4% | inhibition at 1 µM [3, 13]: 19 ± 3% | inhibition at 1 µM [3, 14]: 48 ± 3% | inhibition at 1 µM [3, 15]: 94 ± 3% | Percentage of inhibition of cell cultures (Endometrium carcinoma; Cases with Kras mutated): 24±6 percentage | Percentage of inhibition of cell cultures (Endometrium carcinoma; [16]): 95±4 percentage | inhibition at 1 µM (Colon carcinoma; [17]): 12 ± 4% | inhibition at 1 µM (Colon carcinoma; [11]): 45 ± 3% | inhibition at 1 µM (Colon carcinoma; [12]): 91 ± 2% | inhibition at 1 µM (Colon carcinoma; [13]): 18 ± 5% | inhibition at 1 µM (Colon carcinoma; [14]): 46 ± 4% | inhibition at 1 µM (Colon carcinoma; [15]): 91 ± 5% | inhibition at 1 µM (Glioma; [17]): 15 ± 4% | inhibition at 1 µM (Glioma; [11]): 45 ± 4% | inhibition at 1 µM (Glioma; [12]): 92 ± 4% | inhibition at 1 µM (Glioma; [13]): 19 ± 3% | inhibition at 1 µM (Glioma; [14]): 48 ± 5% | inhibition at 1 µM (Glioma; [15]): 92 ± 3% | inhibition at 1 µM (Burkitt Lymphoma [4]; [17]): 12 ± 3% | inhibition at 1 µM (Burkitt Lymphoma [4]; [11]): 45 ± 3% | inhibition at 1 µM (Burkitt Lymphoma [4]; [12]): 92 ± 4% | inhibition at 1 µM (Burkitt Lymphoma [4]; [13]): 15 ± 3% | inhibition at 1 µM (Burkitt Lymphoma [4]; [14]): 47 ± 5% | inhibition at 1 µM (Burkitt Lymphoma [4]; [15]): 92 ± 6% | Percentage of inhibition of cell cultures ([5]; Cases with Kras mutated): 25±3 percentage | Percentage of inhibition of cell cultures [5, 16]: 97±4 percentage | inhibition at 1 µM [6, 17]: 15 ± 2% | inhibition at 1 µM [6, 11]: 45 ± 2% | inhibition at 1 µM [6, 12]: 93 ± 4% | inhibition at 1 µM [6, 13]: 17 ± 2% | inhibition at 1 µM [6, 14]: 49 ± 5% | inhibition at 1 µM [6, 15]: 93 ± 5% | inhibition at 1 µM (Fibrosarcoma; [17]): 16 ± 3% | inhibition at 1 µM (Fibrosarcoma; [11]): 45 ± 3% | inhibition at 1 µM (Fibrosarcoma; [12]): 91 ± 3% | inhibition at 1 µM (Fibrosarcoma; [13]): 18 ± 2% | inhibition at 1 µM (Fibrosarcoma; [14]): 47 ± 3% | inhibition at 1 µM (Fibrosarcoma; [15]): 91 ± 2% | inhibition at 1 µM [7, 17]: 16 ± 3% | inhibition at 1 µM [7, 11]: 46 ± 3% | inhibition at 1 µM [7, 12]: 93 ± 3% | inhibition at 1 µM [7, 13]: 18 ± 3% | inhibition at 1 µM [7, 14]: 45 ± 3% | inhibition at 1 µM [7, 15]: 93 ± 3% | Percentage of inhibition of cell cultures ([8]; Cases with Kras mutated): 26±4 percentage | Percentage of inhibition of cell cultures [8, 16]: 97±5 percentage | Percentage of inhibition of cell cultures ([9]; Cases with Kras mutated): 24±4 percentage | Percentage of inhibition of cell cultures [9, 16]: 97±6 percentage | inhibition of cell proliferation [10]: higher inhibition
